*1 amine or outer side, *2 acyl side, *3 side chain or, on linkers, in order; H or OH if unused. Where a SMILES comes first, the peptide text is derived from it. [ ]: non-standard residue; d: D form. The star is where a group is joined. Phenylsulfonyl(4-anisamido) = COc1ccc(C(=O)Nc2ccc(S(=O)(=O)*)cc2)cc1; Benzoyl(4-(4-EtNHCO-PhO)) = CCNC(=O)c1ccc(Oc2ccc(C(=O)*)cc2)cc1; Benzoyl(4-O-C6H4-4-CONHMe) = CNC(=O)c1ccc(Oc2ccc(C(=O)*)cc2)cc1; X11 = O=C(O)CCCCNC(=O)c1ccc(Oc2ccc(C(=O)*)cc2)cc1; X17 = CC(=O)Nc1ccc(-c2ccc(S(=O)(=O)*)cc2)cc1; Benzoyl(4-OPh) = O=C(c1ccc(Oc2ccccc2)cc1)*; d(βAsp) = O=C(O)[C@@H](CC(=O)[*:2])N[*:1]; X13 = Cc1ccc(C#Cc2ccc(S(=O)(=O)*)s2)cc1; NMeI = CC[C@H](C)[C@H](NC)C(=O)O; NMeE = CN[C@@H](CCC(=O)O)C(=O)O; NMeV = CN[C@H](C(=O)O)C(C)C; β3hP = O=C(O)C[C@@H]1CCCN1; NMeA = CN[C@@H](C)C(=O)O; Dab = NCC[C@H](N)C(=O)O; Dap = NC[C@H](N)C(=O)O; Aib = CC(C)(N)C(=O)O; Ahx = NCCCCCC(=O)O; Ava = NCCCCC(=O)O; GABA = NCCCC(=O)O; βAla = NCCC(=O)O
The molecules below were run against T1, MMP2 (Homo sapiens, UniProt P08253) (assay: Inhibitory effects on human MMP2 (Method 1), enzyme assay with MOCAc-Pro-Leu-Gly-Leu-A2pr(Dnp)-Ala-Arg-NH2 substrate, 96-well). Settings: Test Example No. 1-1 (Method 1, 96-well microplate); read-out: Human MMP2, IC50.
T1 sequence (P08253 110-660): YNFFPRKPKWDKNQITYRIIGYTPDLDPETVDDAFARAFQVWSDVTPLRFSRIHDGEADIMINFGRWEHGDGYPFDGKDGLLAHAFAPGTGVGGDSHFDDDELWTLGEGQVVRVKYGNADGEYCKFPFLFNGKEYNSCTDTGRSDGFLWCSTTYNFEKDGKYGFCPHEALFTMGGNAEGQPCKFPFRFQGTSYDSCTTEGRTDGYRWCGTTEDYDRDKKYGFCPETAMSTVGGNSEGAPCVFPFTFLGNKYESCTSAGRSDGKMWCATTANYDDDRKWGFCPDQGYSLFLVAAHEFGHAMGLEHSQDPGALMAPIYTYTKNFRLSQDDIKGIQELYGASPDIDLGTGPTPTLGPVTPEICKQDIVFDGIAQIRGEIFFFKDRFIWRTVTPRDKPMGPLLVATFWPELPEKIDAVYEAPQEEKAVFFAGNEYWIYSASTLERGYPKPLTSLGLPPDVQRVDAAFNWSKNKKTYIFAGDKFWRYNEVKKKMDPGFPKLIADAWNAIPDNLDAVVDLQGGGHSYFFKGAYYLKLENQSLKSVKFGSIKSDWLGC
Format: biochemical
Method: In a reaction solution [50 mmol/L Tris-HCl (pH 7.5), 150 mmol/L NaCl, 10 mmol/L CaCl2, 0.05% Brij L23], 100 μg/mL human recombinant MMP2 enzyme and 1 mmol/L 4-Aminophenylmercuric acetate were mixed together, and reacted at 37° C. for 60 minutes. The human MMP2 activated through the reaction was poured into a 96-well microplate to reach a final concentration of 0.7 or 7 ng/mL.

IC50 [pM]	SMILES
68	CC[C@H](C)[C@@H](C(=O)N1CCC[C@H]1CC(N)=O)N(C)C(=O)[C@H](CC(C)C)NC(=O)[C@H](CN)NC(=O)C[C@@H](NS(=O)(=O)c1ccc(NC(=O)c2ccc(OC)cc2)cc1)C(=O)O [Compound 692, N-[(2S)-3-amino-1-({(2S)-1-[{(2S,3S)-1-[(2S)-2-(2-amino-2-oxoethyl)pyrrolidin-1-yl]-3-methyl-1-oxopentan-2-yl}(methyl)amino]-4-methyl-1-oxopentan-2-yl}amino)-1-oxopropan-2-yl]-N^2-[4-(4-methoxybenzamido)benzene-1-sulfonyl]-D-asparagine] ({Phenylsulfonyl(4-anisamido)-d(βAsp)}-[Dap]L[NMeI][β3hP]-NH2)
2800	CC[C@H](C)[C@@H](C(=O)N1CCC[C@H]1CC(N)=O)N(C)C(=O)[C@H](CC(C)C)NC(=O)[C@H](CCN)NC(=O)[C@H](CC(=O)O)NC(=O)[C@H](CCCCN)NC(=O)CCCCCNC(=O)c1ccc(Oc2ccc(C(=O)NC)cc2)cc1 [Compound 187] ({Benzoyl(4-O-C6H4-4-CONHMe)-Ahx}-KD[Dab]L[NMeI][β3hP]-NH2; N-terminus assumed)
7400	CC[C@H](C)[C@@H](C(=O)N1CCC[C@H]1CC(N)=O)N(C)C(=O)[C@H](CC(C)C)NC(=O)[C@H](CCN)NC(=O)[C@H](CC(=O)O)NC(=O)[C@H](CCC(=O)O)NC(=O)CCCCNC(=O)c1ccc(Oc2ccc(C(=O)NCCCCC(=O)O)cc2)cc1 [Compound 200] ({X11-Ava}-ED[Dab]L[NMeI][β3hP]-NH2; N-terminus assumed)
2600	CCNC(=O)c1ccc(Oc2ccc(C(=O)NCCCCC(=O)N[C@@H](CCCNC(=N)N)C(=O)N[C@@H](CC(=O)O)C(=O)N[C@@H](CCN)C(=O)N[C@@H](CC(C)C)C(=O)N(C)[C@H](C(=O)N3CCC[C@H]3CC(N)=O)[C@@H](C)CC)cc2)cc1 [Compound 197] ({Benzoyl(4-(4-EtNHCO-PhO))-Ava}-RD[Dab]L[NMeI][β3hP]-NH2; N-terminus assumed)
940	CC[C@H](C)[C@@H](C(=O)N1CCC[C@H]1CC(N)=O)N(C)C(=O)[C@H](CC(C)C)NC(=O)[C@H](C)NC(=O)C[C@@H](NS(=O)(=O)c1ccc(-c2ccc(NC(C)=O)cc2)cc1)C(=O)O [Compound 636] ({X17-d(βAsp)}-AL[NMeI][β3hP]-NH2; N-terminus assumed)
120	Cc1ccc(C#Cc2ccc(S(=O)(=O)NCCC(=O)N[C@@H](CC(N)=O)C(=O)N[C@@H](CC(=O)O)C(=O)N[C@@H](C)C(=O)N[C@@H](CC(C)C)C(=O)N(C)[C@H](C(=O)N3CCC[C@H]3C(N)=O)C(C)C)s2)cc1 [Compound 589] ({X13-βAla}-NDAL[NMeV]P-NH2; N-terminus assumed)

SMILES	IC50 [pM]
CC[C@H](C)[C@@H](C(=O)N1CCC[C@H]1C(N)=O)N(C)C(=O)[C@H](CC(C)C)NC(=O)[C@H](C)NC(=O)[C@H](CC(=O)O)NC(=O)[C@H](CCC(N)=O)NC(=O)CCCNC(=O)c1ccc(Oc2ccccc2)cc1 [Compound 128] ({Benzoyl(4-OPh)-GABA}-QDAL[NMeI]P-NH2; N-terminus assumed)	150
CC[C@H](C)[C@@H](C(=O)N1CCC[C@H]1C(N)=O)N(C)C(=O)[C@H](CC(C)C)NC(=O)[C@H](C)NC(=O)[C@H](CC(=O)O)NC(=O)[C@H](CCC(=O)O)N(C)C(=O)CCCNC(=O)c1ccc(Oc2ccccc2)cc1 [Compound 126] ({Benzoyl(4-OPh)-GABA}-[NMeE]DAL[NMeI]P-NH2; N-terminus assumed)	290
CC[C@H](C)[C@@H](C(=O)NC(C)(C)C(N)=O)N(C)C(=O)[C@H](CC(C)C)NC(=O)[C@H](C)NC(=O)[C@H](CC(=O)O)NC(=O)[C@H](C)N(C)C(=O)CCCNC(=O)c1ccc(Oc2ccccc2)cc1 [Compound 96] ({Benzoyl(4-OPh)-GABA}-[NMeA]DAL[NMeI][Aib]-NH2)	740
CC[C@H](C)[C@@H](C(=O)N1CCC[C@H]1C(N)=O)N(C)C(=O)[C@H](CC(C)C)NC(=O)[C@H](C)NC(=O)[C@H](CC(=O)O)NC(=O)[C@H](C)N(C)C(=O)CCCNC(=O)c1ccc(Oc2ccccc2)cc1 [Compound 92] ({Benzoyl(4-OPh)-GABA}-[NMeA]DAL[NMeI]P-NH2; N-terminus assumed)	310

Reference: patent US20240199692A1 (priority 2019, published 2024)
